Data: patent publication US7799824B2, “Quaternary salt CCR2 antagonists” (OraPharma, Inc., priority 2004, dated 2010)

Target: T1, CCR2 (Homo sapiens, UniProt P41597)
T1 sequence (P41597 1-360 isoform P41597-2): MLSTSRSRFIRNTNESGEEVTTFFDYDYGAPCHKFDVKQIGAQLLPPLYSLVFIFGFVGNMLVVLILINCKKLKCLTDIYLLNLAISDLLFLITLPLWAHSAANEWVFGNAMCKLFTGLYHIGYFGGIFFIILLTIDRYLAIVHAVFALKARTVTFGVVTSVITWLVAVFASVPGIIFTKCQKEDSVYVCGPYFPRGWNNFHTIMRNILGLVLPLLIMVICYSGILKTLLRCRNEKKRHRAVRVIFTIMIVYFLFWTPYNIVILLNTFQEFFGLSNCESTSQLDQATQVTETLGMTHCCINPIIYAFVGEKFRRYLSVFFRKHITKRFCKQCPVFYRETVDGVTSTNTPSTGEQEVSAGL
Assay: MCP-1 Receptor Binding Assay in THP-1 Cells
Details: MCP-1 binding to CCR2; test concentration of 25 μM, unless indicated otherwise; read-out: % Inhibition Ligand Binding
Summary of the method: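 THP-1 cells; bound radioactivity collected on filter plates and counted by scintillation. Buffer-only blanks subtracted, drug-treated values compared with vehicle; nonspecific binding defined with 1 μM unlabeled MCP-1.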

| inhibition at 25 µM | Structure (SMILES) |
| --- | --- |
| -21% | C[N+](C)(Cc1ccc(CNC(=O)C2=Cc3c(ccc4ccccc34)OC2)cc1)C1CCOCC1 [Cpd 141, (4-{[(3H-benzo[f]chromene-2-carbonyl)-amino]-methyl}-benzyl)-dimethyl-(tetrahydro-pyran-4-yl)-ammonium iodide] |
| -18% | C[N+](C)(Cc1ccc(CNC(=O)C2=Cc3cc(Br)ccc3CCC2)cc1)C1CCOCC1 [Cpd 142, (4-{[(3-bromo-8,9-dihydro-7H-benzocycloheptene-6-carbonyl)-amino]-methyl}-benzyl)-dimethyl-(tetrahydro-pyran-4-yl)-ammonium iodide] |
| 36% | C[N+]1(Cc2ccc(NC(=O)C3=Cc4ccccc4CCC3)cc2)CCCC1 [Cpd 145, 1-{4-[(8,9-dihydro-7H-benzocycloheptene-6-carbonyl)-amino]-benzyl}-1-methyl-pyrrolidinium iodide] |
| 7% | C[N+](C)(Cc1ccc(CNC(=O)C2=Cc3ccccc3CCC2)cc1)C1CCOCC1 [Cpd 148, (4-{[(8,9-dihydro-7H-benzocycloheptene-6-carbonyl)-amino]-methyl}-benzyl)-dimethyl-(tetrahydro-pyran-4-yl)-ammonium iodide] |
| 58% | Cc1oc(-c2ccccc2)cc1C(=O)NCc1ccc(C[N+](C)(C)C2CCOCC2)cc1 [Cpd 149, dimethyl-(4-{[(2-methyl-5-phenyl-furan-3-carbonyl)-amino]-methyl}-benzyl)-(tetrahydro-pyran-4-yl)-ammonium iodide] |
| 27% | Cc1oc(-c2ccc(Cl)cc2)cc1C(=O)NCc1ccc(C[N+](C)(C)C2CCOCC2)cc1 [Cpd 150, [4-({[5-(4-chloro-phenyl)-2-methyl-furan-3-carbonyl]-amino}-methyl)-benzyl]-dimethyl-(tetrahydro-pyran-4-yl)-ammonium iodide] |

Same assay, conditions: THP-1 cells, 0.5 nM 125I labeled MCP-1, 2 hours at 30° C.; read-out: Mean Ligand Binding IC50 (inhibition of MCP-1 binding to CCR2)

| Structure (SMILES) | IC50 |
| --- | --- |
| C[N+](C)(Cc1ccc(NC(=O)C2=Cc3c(ccc4ccccc34)OC2)cc1)C1CCOCC1 [Cpd 135, {4-[(3H-benzo[f]chromene-2-carbonyl)-amino]-benzyl}-dimethyl-(tetrahydro-pyran-4-yl)-ammonium iodide] | 910 nM |
| C[N+]1(Cc2ccc(NC(=O)C3=Cc4c(ccc5ccccc45)OC3)cc2)CCCC1 [Cpd 136, 1-{4-[(3H-benzo[f]chromene-2-carbonyl)-amino]-benzyl}-1-methyl-pyrrolidinium iodide] | 4600 nM |
| C[N+](C)(Cc1ccc(NC(=O)C2=Cc3c(ccc4ccccc34)OC2)cc1)C1CCSCC1 [Cpd 138, {4-[(3H-benzo[f]chromene-2-carbonyl)-amino]-benzyl}-dimethyl-(tetrahydro-thiopyran-4-yl)-ammonium iodide] | 2400 nM |
| C[N+]1(Cc2ccc(NC(=O)C3=Cc4c(ccc5ccccc45)OC3)cc2)CCOCC1 [Cpd 139, 4-{4-[(3H-benzo[f]chromene-2-carbonyl)-amino]-benzyl}-4-methyl-morpholin-4-ium iodide] | 9800 nM |
| C[N+](C)(Cc1ccc(NC(=O)C2=Cc3c(ccc4ccccc34)OC2)cc1)CC1CCOCC1 [Cpd 140, {4-[(3H-benzo[f]chromene-2-carbonyl)-amino]-benzyl}-dimethyl-(tetrahydro-pyran-4-ylmethyl)-ammonium iodide] | 1000 nM |
| C[N+](C)(Cc1ccc(NC(=O)C2=Cc3ccccc3CCC2)cc1)C1CCOCC1 [Cpd 147, {4-[(8,9-dihydro-7H-benzocycloheptene-6-carbonyl)-amino]-benzyl}-dimethyl-(tetrahydro-pyran-4-yl)-ammonium iodide] | 1200 nM |
| C[N+](C)(Cc1ccc(NC(=O)c2cc3ccccc3o2)cc1)C1CCOCC1 [Cpd 152, {4-[(benzofuran-2-carbonyl)-amino]-benzyl}-dimethyl-(tetrahydro-pyran-4-yl)-ammonium iodide] | 1600 nM |
| C[N+](C)(Cc1ccc(NC(=O)c2cc(-c3ccc(Cl)cc3)oc2C(F)(F)F)cc1)C1CCCCC1 [Cpd 154, (4-{[5-(4-chloro-phenyl)-2-trifluoromethyl-furan-3-carbonyl]-amino}-benzyl)-cyclohexyl-dimethyl-ammonium iodide] | 4600 nM |

Now from value to molecule:

| IC50 | Structure (SMILES) |
| --- | --- |
| 910 nM | C[N+](C)(Cc1ccc(NC(=O)C2=Cc3cccc(F)c3OC2)cc1)C1CCCCC1 [Cpd 126, cyclohexyl-{4-[(8-fluoro-2H-chromene-3-carbonyl)-amino]-benzyl}-dimethyl-ammonium iodide] |
| 710 nM | C[N+](C)(Cc1ccc(NC(=O)C2=Cc3ccccc3CCC2)cc1)C1CCCCC1 [Cpd 146, cyclohexyl-{4-[(8,9-dihydro-7H-benzocycloheptene-6-carbonyl)-amino]-benzyl}-dimethyl-ammonium iodide] |
| 600 nM | COc1ccc2c(c1)OCC(C(=O)Nc1ccc(C[N+](C)(C)C3CCCCC3)cc1)=C2 [Cpd 128, cyclohexyl-{4-[(7-methoxy-2H-chromene-3-carbonyl)-amino]-benzyl}-dimethyl-ammonium iodide] |
| 490 nM | C[N+](C)(Cc1ccc(NC(=O)c2cc3cc(Cl)ccc3o2)cc1)C1CCOCC1 [Cpd 155, {4-[(5-chloro-benzofuran-2-carbonyl)-amino]-benzyl}-dimethyl-(tetrahydro-pyran-4-yl)-ammonium iodide] |
| 470 nM | C[N+](C)(Cc1ccc(NC(=O)C2=Cc3cccc(C(F)(F)F)c3OC2)cc1)C1CCCCC1 [Cpd 134, cyclohexyl-dimethyl-{4-[(8-trifluoromethyl-2H-chromene-3-carbonyl)-amino]-benzyl}-ammonium iodide] |
| 330 nM | C[N+](C)(Cc1ccc(NC(=O)C2=Cc3cc(Br)ccc3CCC2)cc1)C1CCCCC1 [Cpd 144, {4-[(3-bromo-8,9-dihydro-7H-benzocycloheptene-6-carbonyl)-amino]-benzyl}-cyclohexyl-dimethyl-ammonium iodide] |
| 300 nM | C[N+](C)(Cc1ccc(NC(=O)C2=Cc3cc(C(F)(F)F)ccc3OC2)cc1)C1CCSC1 (centres unmarked) [Cpd 130, dimethyl-(tetrahydro-thiophen-3-yl)-{4-[(6-trifluoromethyl-2H-chromene-3-carbonyl)-amino]-benzyl}-ammonium iodide] |
| 180 nM | C[N+](C)(Cc1ccc(NC(=O)c2cc3cc(Cl)ccc3o2)cc1)C1CCCCC1 [Cpd 156, {4-[(5-chloro-benzofuran-2-carbonyl)-amino]-benzyl}-cyclohexyl-dimethyl-ammonium iodide] |
| 150 nM | CC(C)(C)c1ccc2c(c1)C=C(C(=O)Nc1ccc(C[N+](C)(C)C3CCCCC3)cc1)CO2 [Cpd 129, {4-[(6-tert-butyl-2H-chromene-3-carbonyl)-amino]-benzyl}-cyclohexyl-dimethyl-ammonium iodide] |
| 80 nM | Cc1ccc2c(c1)OCC(C(=O)Nc1ccc(C[N+](C)(C)C3CCCCC3)cc1)=C2 [Cpd 127, cyclohexyl-dimethyl-{4-[(7-methyl-2H-chromene-3-carbonyl)-amino]-benzyl}-ammonium iodide] |
| 80 nM | C[N+](C)(Cc1ccc(NC(=O)C2=Cc3c(ccc4ccccc34)OC2)cc1)C1CCCCC1 [Cpd 137, {4-[(3H-benzo[f]chromene-2-carbonyl)-amino]-benzyl}-cyclohexyl-dimethyl-ammonium iodide] |
| 7 nM | C[N+](C)(Cc1ccc(NC(=O)C2=Cc3cc(Br)ccc3CCC2)cc1)C1CCOCC1 [Cpd 143, {4-[(3-bromo-8,9-dihydro-7H-benzocycloheptene-6-carbonyl)-amino]-benzyl}-dimethyl-(tetrahydro-pyran-4-yl)-ammonium iodide] |
